{"source": "patent US10004718B2", "about": "“Erythropoietin expression promoter” (TOHOKU UNIVERSITY, priority 2012, dated 2018)", "key": {"[1]": {"system": "MCA (middle cerebral artery) occlusion mouse models", "experiment": "Cerebral ischemic injury, MCA occlusion mouse model (TTC staining)", "type": "in vivo", "conditions": "40 mg/kg intraperitoneal 4 hours before ischemia, 24 hours after reperfusion, vs DMSO, n=1", "protocol": "Two types of compounds (compounds #4 and 35) (40 mg/kg of mouse body weight) were each intraperitoneally administered to a mouse 4 hours before ischemia (n=1). A vehicle (DMSO) was administered to a control (n=1). Anesthesia was induced in each mouse with 4% halothane and oxygen and maintained by the intraperitoneal administration of ketamine (40 mg/kg) and xylazine (4 mg/kg) at 30-minute intervals. After the induction of systemic anesthesia, bifurcation of the common carotid artery was exposed under a microscope. A 6-0 nylon thread having a silicon-coated tip was inserted from the internal carotid artery toward the central side so that its tip reached the anterior communicating artery. The common carotid artery was further ligated to block blood flow into the middle cerebral artery. After the ischemic burden for 30 minutes, the nylon thread was removed so that the ligated common carotid artery was released to induce reperfusion.\n24 hours after the reperfusion, each mouse was cervically dislocated and then decapitated to excise the brain. Five coronal sections of the cerebrum having a thickness of 2 mm were prepared from the boundary between the cerebrum and the cerebellum. The coronal sections of the cerebrum were stained with TCC through a reaction at 37° C. for 20 minutes with a TTC solution diluted to 1.5% with PBS. […]"}, "erythropoietin": {"system": "erythropoietin", "experiment": "Erythropoietin production in vivo in mice, oral administration for 7 days", "set-up": "species or system mouse", "conditions": "7 consecutive days, plasma 24 hours after final administration, vs corn oil, DMSO+corn oil or no administration", "protocol": "A mixed solution (200 μl) of each of 4 types of compounds (compounds #4, 5, 21, and 35) (10 mg/100 μl of DMSO) (10 μl) and corn oil (190 μl) was prepared. This mixed solution (200 μl) was orally administered to each mouse (C57BL/6N 8 W, male, 21-25 g) between 15:00 to 18:00 every day using a sonde. This administration was carried out for 7 consecutive days. Mice orally given corn oil or DMSO and corn oil as well as non-administered mice were used as controls.\n24 hours after the final administration, each mouse was cervically dislocated, and 500 μl of blood was collected from the heart. Then, an anticoagulant (10 μl of heparin) was added thereto, and the resulting blood was centrifuged (12000 rpm×20 min, 4° C.) to isolate plasma. The plasma concentration […] of erythropoietin was measured using a kit (Quantikine Mouse/Rat Epo Immunoassay, manufactured by R&D Systems, Inc.)."}, "HIF-α": {"system": "HIF-α", "experiment": "HIF-α concentration in Hep3B cells (Total HIF-1α Cell-Based ELISA)", "set-up": "species or system human", "conditions": "compound 10 μM, 20% O2, 24 hours", "protocol": "The Hep3B cells were seeded at 1×10^4 cells/well to a 24-well cell culture plate and then cultured under normal oxygen (20% O2) for 24 hours. Each of 3 types of compounds (compounds #4, 21, and 35) was mixed at a concentration of 10 μM into RPMI1640 common medium 1. After further culture under normal oxygen (20% O2) for 24 hours, the concentration of HIF-α produced in the medium was measured using Total HIF-1 α Cell-Based ELISA Kit (manufactured by R&D Systems, Inc.). Hep3B cells cultured in the absence of the compound (DMSO added [1%]) (“Control” of FIG. 5) were used as a negative control. Hep3B cells cultured in the presence of HIF activators (FG-4592 [10 μM], DMOG [10 μM], and ciclopirox[10 μM]) (“FG”, “DMOG”, and “Ciclo”, respectively, of FIG. 5) were used as positive controls."}, "Leigh cells": {"system": "Leigh cells", "experiment": "Cell death caused by oxidative stress (BSO) in Leigh syndrome patient fibroblasts", "type": "cell-based, human", "conditions": "compound 10 μM, 4 days after BSO treatment", "protocol": "In Examples 2 to 7 and Reference Example 1 below, an erythropoietin-producing human hepatocellular carcinoma cell Hep3B (obtained from ATCC [American Type Culture Collection]) was cultured and maintained under conditions of 5% CO2/20% O2 and 37° C. in an RPMI1640 (manufactured by Life Technologies, Inc./GIBCO) medium containing 100 U/mL penicillin (manufactured by Life Technologies, Inc./GIBCO), 100 μg/mL streptomycin (manufactured by Life Technologies, Inc./GIBCO), and 10% fetal bovine serum (FBS) (manufactured by Life Technologies, Inc./GIBCO) (hereinafter, referred to as “RPMI1640 common medium 1”). In Example 15 below, Leigh syndrome patients were subjected to skin biopsy to obtain skin fibroblast cells, which were then primarily cultured under conditions of 5% CO2/20% O2 and 37° C. in a DMEM low glucose (manufactured by Life Technologies, Inc./GIBCO) medium containing 100 U/mL penicillin (manufactured by Life Technologies, Inc./GIBCO), 100 μg/mL streptomycin (manufactured by Life Technologies, Inc./GIBCO), and 1% FBS (manufactured by Life Technologies, Inc./GIBCO) (hereinafter, referred to as “DMEM low glucose common medium”) to isolate cells (Leigh cells). In Example 13 below, a human kidney-derived cell line HK-2 (obtained from ATCC) was cultured and maintained under conditions of 5% CO2/20% O2 and 37° C. in a DMEM/F12 (manufactured by Life Technologies, Inc./GIBCO) medium containing 100 U/mL penicillin (manufactured by Life Technologies, Inc./GIBCO), 100 μg/mL streptomycin (manufactured by Life Technologies, Inc./GIBCO), and 10% fetal bovine serum (manufactured by Life Technologies, Inc./GIBCO) (hereinafter, referred to as “DMEM/F12 common medium”). In Example 14 below, a rat islet of Langerhans-derived cell line ISN-1e (kindly provided by Hisamitsu Ishihara, Nihon University School of Medicine) was cultured and maintained under conditions of 5% CO2/20% O2 and 37° C. in an RPMI1640 (manufactured by Life Technologies, Inc./GIBCO) medium containing 10 mM HEPES (manufactured by Sigma-Aldrich Corp.), 2 mM glutamine (manufactured by Sigma-Aldrich Corp.), 50 μM β-mercaptoethanol (manufactured by Sigma-Aldrich Corp.), 100 U/mL penicillin (manufactured by Life Technologies, Inc./GIBCO), 100 μg/mL streptomycin (manufactured by Life Technologies, Inc./GIBCO), and 10% FBS (manufactured by Life Technologies, Inc./GIBCO) (hereinafter, referred to as “RPMI1640 common medium 2”).\nThe Leigh cells were seeded at 4×10^4 cells/well to a 24-well cell culture plate and then cultured for 24 hours. The glutathione synthesis inhibitor BSO (L-buthionine sulphoximine) (manufactured by Sigma-Aldrich Corp.) was mixed at […] into a medium. After culture for 24 hours in the presence of BSO, each of 5 types of compounds (compounds #2, 4, 5, 21, and 35) was mixed at 10 μM into the medium. After culture for 4 days in the presence of these 5 types of compounds, the number of live cells was measured using Cell Counting Kit-8 (manufactured by Dojindo Laboratories) to calculate the survival rate of the cells (“BSO+#2”, “BSO+#4”, “BSO+#5”, “BSO+#21”, and “BSO+#35” of FIG. 17). […]"}}}
{"smiles": "COc1cc(COc2ccc3[nH]cc(CC(=O)O)c3c2)cc(OC)c1", "note": "[compound #35, 5-(3,5-Dimethoxybenzyloxy)-3-indoleacetic acid]", "values": [{"measurement": "volume of the cerebral infarction site", "setting": "[1]", "result": "decreased"}, {"measurement": "amount of erythropoietin in the mouse blood", "setting": "erythropoietin", "result": "increased"}, {"measurement": "HIF-α concentration in the Hep3B cells", "setting": "HIF-α", "result": "increase the HIF-α concentration"}, {"measurement": "cell death of the Leigh cells by BSO", "setting": "Leigh cells", "result": "efficiently suppress the cell death"}]}
